Experimental data as given in patent US20240252651A1, “METHOD OF DELIVERING NUCLEIC ACIDS INTO CELLS” (GUANGZHOU LIDE BIOMEDICINE TECHNOLOGY CO., LTD., priority 2021, published 2024).
“Also recorded” adds a separate entry of the source.

Columns and labels:
[1] = test system: DC2.4, RAW 264.7, A549, BxPC3, and HeLa cells; assay: Transfection of GFP-expressing plasmid DNA in different types of cells (LSCM); type: cell-based, human, mouse; details: material 0.5 to 3 μg/well, plasmid DNA 0.5 μg/well, 24 h, FIG. 6
Experimental: In this experiment, with I2R3C18-1A1 as a representative cationic lipid analog material and GFP-expressing plasmid DNA as a reporter gene, transfection effects of the cationic lipid analog material at different dosages (0.5 μg/well to 3 μg/well) for plasmid DNA (0.5 μg/well) in different types of cells were investigated. A commercial gene transfection reagent Lipofectamine 2000 was adopted as a positive control. In this experiment, a GFP-expressing plasmid DNA-loaded I2R3C18-1A1 particle complex solution was prepared with reference to the method in Example 8 and added to DC2.4, RAW 264.7, A549, BxPC3, and HeLa cells respectively, these cells were cultured for 24 h, and then a transfection efficiency of plasmid DNA in cells was observed by LSCM.

[2] = test system: Hela cells; assay: Transfection of GFP-expressing plasmid DNA in Hela cells (flow cytometer); type: cell-based, human; details: plasmid DNA 0.5 μg/well, material 0.25 to 8 μg/well (dosages per FIG. 4), 24 h
Experimental: In this experiment, with GFP-expressing plasmid DNA as a reporter gene, a gene transfection efficiency of a cationic lipid analog material in Hela cells was detected. A specific method was as follows:
Hela cells were inoculated in a 24-well plate and cultured in an incubator for 12 h; each of different cationic lipid analog materials (0.25 μg/well to 8 μg/well) was mixed with GFP-expressing plasmid DNA (0.5 μg/well) in 40 μL of a sodium acetate buffer (25 mM, pH 5.2), and resulting mixtures each were allowed to stand for 10 min and then diluted with 460 μL of an Opti-MEM medium to obtain plasmid DNA-loaded cationic lipid analog complex particle solutions; a medium for the Hela cells in the plate was removed, then the HeLa cells were washed once with PBS, and the complex particle solutions were added; and the cells were cultured for 24 h, and then a plasmid DNA transfection efficiency in cells was analyzed by a flow cytometer. A commercial gene transfection reagent Lipofectamine 2000 was adopted as a positive control.

[3] = test system: A549 cells (A549-Luc); assay: siRNA transfection, luciferase gene silencing in A549-Luc cells; type: cell-based, human; details: final siRNA 100 nM, material 0.5 to 3 μg/well, 48 h, FIG. 10
Experimental: In this experiment, with I2R2C18-1A1, I2R3C18-1A1, I2R2C18-2A1, and I2R3C18-2A1 as representative cationic lipid analog materials, siRNA transfection and delivery effects of the cationic lipid analog materials were detected in A549 cells (A549-Luc). A specific operation method was as follows:
Luciferase-expressing A549 cells (A549-Luc) were inoculated in a 96-well plate and cultured in an incubator for 12 h; each of different materials (0.5 μg/well to 3 μg/well) was mixed with siRNA in 40 μL of a sodium acetate buffer (25 mM, pH 5.2), and resulting mixtures each were allowed to stand for 10 min and then diluted with 460 μL of an Opti-MEM medium to obtain siRNA-loaded complex particle solutions (final siRNA concentration was 100 nM); a medium for the A549-Luc cells in the plate was removed, then the A549-Luc cells were washed once with PBS, and the complex particle solutions each were added in a volume of 125 μL; the cells were cultured for 48 h, then a resulting culture supernatant was discarded, and the cells were fully lysed; and a substrate was added at 50 μl/well, and an expression level of luciferase was detected by a multi-mode microplate reader.

[4] = test system: DC 2.4 cells; assay: Transfection of eGFP-mRNA in DC 2.4 cells (FCM and LSCM); type: cell-based, mouse; details: mRNA 0.2 μg/well, material 0.25 to 2 μg/well (dosages per FIG. 7), 24 h, FIG. 7-9
Experimental: In this experiment, with eGFP-mRNA as model mRNA, an mRNA transfection efficiency of a cationic lipid analog material in DC 2.4 cells was detected. A specific operation method was as follows:
DC 2.4 cells were inoculated in a 48-well plate and cultured in an incubator for 12 h; each of different cationic lipid analog materials (0.25 μg/well to 2 μg/well) was mixed with cGFP-expressing mRNA (0.2 μg/well) in 20 μL of a sodium acetate buffer (25 mM, pH 5.2), and resulting mixtures each were allowed to stand for 10 min and then diluted with 230 μL of a Opti-MEM medium to obtain mRNA-loaded complex particle solutions; a medium for the […] were washed once with PBS, and the complex particle solutions were added; and the cells were cultured for 24 h, an mRNA transfection efficiency in cells was observed by FCM and LSCM. A commercial gene transfection reagent Lipofectamine 2000 was adopted as a positive control.

[5] = test system: Hela cells; assay: Transfection of luciferase-expressing plasmid DNA in HeLa cells (luciferase expression); type: cell-based, human; details: plasmid DNA 0.5 μg, 24 h, luciferase expression level, FIG. 5
Experimental: In this example, with luciferase-expressing plasmid DNA as a reporter gene, a gene transfection efficiency of a cationic lipid analog material in HeLa cells was detected. A specific operation method was as follows: Hela cells were inoculated in a 96-well plate and cultured in an incubator for 12 h; each of different cationic lipid analog materials was mixed with luciferase-expressing plasmid DNA (0.5 μg) in 40 μL of a sodium acetate buffer (25 mM, pH 5.2), and resulting mixtures each were allowed to stand for 10 min and then diluted with 460 μL of an Opti-MEM medium to obtain plasmid DNA-loaded cationic lipid analog complex particle solutions; a medium for the Hela cells in the plate was removed, then the Hela cells were washed once with PBS, and the complex particle solutions were added in a volume of 125 μL; the cells were cultured for 24 h, then a resulting culture supernatant was discarded, and the cells were fully lysed; and a substrate was added at 50 μl/well, and an expression level of luciferase was detected by a multi-mode microplate reader.

Question: How did the “transfection of GFP-expressing plasmid DNA in different types of cells” value [1] turn out when `CCCCCCCC/C=C\CCCCCCCC(=O)N(CCCN(CC)CC)C(C(=O)NCCOCCOCCNC(=O)C(C(C)C)N(CCCN(CC)CC)C(=O)CCCCCCC/C=C\CCCCCCCC)C(C)C` (stereo not drawn) [I2R3C18-1A1] was run?
Answer: can transfect GFP-expressing plasmid DNA into tumor cells and immune cells

Question: What about the “transfection efficiency of GFP-expressing plasmid DNA, compared with commercial transfection reagent Lipofectamine 2000” value [2] of the same molecule?
Answer: reaches or is higher than; also recorded: equivalent to or higher than

Question: And the “gene silencing efficiency as a function of material dosage” value [3]?
Answer: increases with the increase of a dosage

Question: What about the “siRNA transfection, silencing of the luciferase reporter gene” value [3] of the same molecule?
Answer: efficient gene silencing; also recorded: can transfect siRNA into cells to specifically silence the expression of the luciferase reporter gene

Question: And the “mRNA transfection efficiency (eGFP-mRNA), compared with Lipofectamine 2000” value [4]?
Answer: high transfection efficiency; also recorded: equivalent to or higher than

Question: And the “transfection efficiency of luciferase-expressing plasmid DNA, compared with Lipofectamine 2000” value [5]?
Answer: equivalent to or higher than
